Measurements reported in patent US20250206738A1, “WRN INHIBITORS” (Nimbus Wadjet, Inc., priority 2023, published 2025).
pIC50: −log10 of the molar value.

biological target: T1, human Werner helicase (WRN, Uniprot Q14191, amino acids 517-1235 with L1074F point mutation; WRN-BV08) (Homo sapiens, UniProt Q14191, L1074F); experiment: WRN (BV08) ADP-Glo assay; assay type: biochemical; conditions: WRN-BV08 (aa 517-1235, L1074F); read-out: ADP-Glo_hWRN_IC50
T1 construct: Uniprot Q14191, amino acids 517-1235 with L1074F point mutation; 8xHis (C, cleaved yes); TEV cleavage site (ENLYFQG) (C, cleaved yes); made in house; host or cells: Sf9 insect cells (baculovirus, pFastBac)
T1 sequence (Q14191 with tags, fused parts or gaps L1074F): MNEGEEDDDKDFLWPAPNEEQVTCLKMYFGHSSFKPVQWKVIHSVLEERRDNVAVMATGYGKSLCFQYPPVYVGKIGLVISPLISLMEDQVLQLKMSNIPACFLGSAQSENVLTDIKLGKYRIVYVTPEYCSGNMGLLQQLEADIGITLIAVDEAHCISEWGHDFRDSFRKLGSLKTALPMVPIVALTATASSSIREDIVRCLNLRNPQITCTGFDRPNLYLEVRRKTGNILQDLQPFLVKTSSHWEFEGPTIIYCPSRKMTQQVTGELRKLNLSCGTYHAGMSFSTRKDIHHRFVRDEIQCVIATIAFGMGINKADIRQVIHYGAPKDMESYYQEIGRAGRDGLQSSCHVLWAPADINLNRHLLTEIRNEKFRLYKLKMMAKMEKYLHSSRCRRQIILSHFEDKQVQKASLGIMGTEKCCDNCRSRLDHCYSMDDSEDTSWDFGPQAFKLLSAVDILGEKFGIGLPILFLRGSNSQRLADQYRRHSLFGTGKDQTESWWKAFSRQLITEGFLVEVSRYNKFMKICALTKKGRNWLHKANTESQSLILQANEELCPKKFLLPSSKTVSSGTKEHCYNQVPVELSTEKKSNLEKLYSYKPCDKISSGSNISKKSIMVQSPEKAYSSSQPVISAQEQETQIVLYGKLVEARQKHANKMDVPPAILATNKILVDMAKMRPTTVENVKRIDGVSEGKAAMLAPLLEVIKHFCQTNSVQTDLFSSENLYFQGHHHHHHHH
Description: Example 2: WRN (BV08) ADP-Glo Assay Protocol
Bovine skin gelatin (BSG), dimethyl sulfoxide (DMSO), Pluronic F-127 and tris(2-carboxyethyl)phosphine hydrochloride solution (TCEP) were purchased from Sigma-Aldrich (St. Louis, MO) at the highest level of purity possible. Bicine buffer solution was purchased from Alfa Aesar (Tewksbury, MA) and compound NSC-617145 was purchased from Tocris (Minneapolis, MN). DNA duplex was synthesized at BGI (Shenzhen, China) and was composed of strand 1 with the sequence 5′-[…]-3′ (SEQ ID NO.: 1) and strand 2 with the sequence 5′-[…]-3′ (SEQ ID NO.: 2). DNA strands were annealed by heating to 95° C. for 5 minutes followed by slow cooling to room temperature. Compounds in 100% DMSO ([…]) were spotted into a 384-well white polystyrene Optiplate-384 (Perkin Elmer; Waltham, MA) assay plate using a LabCyte Echo 550 (Agilent; Santa Clara, CA). DMSO ([…]) was added to columns 12, rows A-H and column 24, rows I-P for the maximum signal control. Compound NSC-617145 ([…]) was added to columns 12, rows I-P and 24, rows A-H for the minimum signal control (100% inhibition). Compounds/DMSO were preincubated for 15 minutes at 25° C. with […] 2×WRN (BV08), prepared as described below, in assay buffer containing 20 mM Bicine (pH=7.5), 1 mM MgCl2, 10 mM KCl, 0.1% Pluronic F-127, 0.005% BSG, 1 mM TCEP. The reaction was initiated by the addition of […] 2× substrate mixture in assay buffer and incubated for 60 minutes at 25° C. The final concentrations of the assay components were 0.15 nM WRN, […], and 0.1 nM DNA duplex. The final DMSO concentration was 1% and the reference compound concentration (NSC-617145) used for the minimal signal control was […]. The reaction was stopped by the addition of the ADP-Glo Kit components (Promega; Madison, WI) as directed and the relative luminescence units (RLU) were read on an Envision 2104 (Perkin Elmer; Waltham, MA).
% Inhibition Calculation:
Where RLU=relative luminescence units, sample=signal in sample well, and MIN and MAX are the respective minimum and maximum signal controls.
Four-Parameter IC50 Fit Equation:
Where top and bottom are normally allowed to float but may be fixed at 100 or 0 respectively in a 3-parameter fit. Y is the % inhibition and X is the compound concentration.
Molecular Biology and virus production. The DNA encoding human Werner helicase (Uniprot Q14191, amino acids 517-1235 with L1074F point mutation) was generated with codon-optimization for […] expression and subcloned into the pFastBac vector with a TEV cleavable 8×His tag (SEQ ID NO: 5) (WRN—BV08). The baculovirus from the expression plasmid WRN—BV08 was generated from transfection and amplification following the manufacturer's instructions.
Sf9 cells grown in SF900II media were infected with 1:200 WRN—BV08 P2 virus and incubated for protein expression for 72 h at 27° C. The WRN protein was purified using the following protocol. The cell pellets were thawed and resuspended in buffer A (50 mM Tris, pH 7.5, 500 mM NaCl, 1 mM TCEP, 10% Glycerol) supplemented with 0.5% CHAPS, 1 mM PMSF, 1 μg/ml Leupeptin, 1 μg/ml Pepstatin, and the Pierce Universal Nuclease and cocktail tablet. Cleared lysates were loaded onto a Ni Sepharose™ excel column and washed with buffer A and bound protein was eluted with buffer A supplemented with 300 mM imidazole. The eluted protein was dialyzed against buffer A and digested by His-tagged TEV (1:5 ratio) overnight at 4° C. ZnCl2 was added into the sample at final 15 μM before loading onto a second Ni Sepharose™ excel column. Untagged WRN protein was eluted from the column with buffer A supplemented with 20 mM imidazole, dialyzed overnight into buffer B (50 mM Tris, pH 7.5, 1 mM TCEP, 10% Glycerol) supplemented with 150 mM NaCl and loaded onto a Heparin column. Proteins were eluted with a step gradient of buffer B supplemented with 150 mM, 200 mM, 300 mM and 500 mM NaCl. […]

pIC50	Compound
7.30 to 8.30	CCc1c(N2CCN(C(=O)c3c(COC)cccc3OC)[C@H]3CC[C@@H]32)c(=O)c2nn(C3=CCOCC3)nc2n1CC(=O)NC12CC(C3CC3)(C1)C2 [I-199, N-{3-cyclopropylbicyclo[1.1.1]pentan-1-yl}-2-[2-(3,6-dihydro-2H-pyran-4-yl)-5-ethyl-6-[(1S,6S)-5-[2-methoxy-6-(methoxymethyl)benzoyl]-2,5-diazabicyclo[4.2.0]octan-2-yl]-7-oxo-2H,4H,7H-[1,2,3]triazolo[4,5-b]pyridin-4-yl]acetamide]
7.30 to 8.30	CCc1c(N2CCN(C(=O)c3ncnc(C)c3O)[C@H]3CC[C@@H]32)c(=O)c2nn(-c3ccnc(C(F)(F)F)c3)nc2n1CC(=O)NC12CC(C3CC3)(C1)C2 [I-165, N-{3-cyclopropylbicyclo[1.1.1]pentan-1-yl}-2-{5-ethyl-6-[(1S,6S)-5-(5-hydroxy-6-methylpyrimidine-4-carbonyl)-2,5-diazabicyclo[4.2.0]octan-2-yl]-7-oxo-2-[2-(trifluoromethyl)pyridin-4-yl]-2H,4H,7H-[1,2,3]triazolo[4,5-b]pyridin-4-yl}acetamide]
7.30 to 8.30	CCc1c(N2CCN(C(=O)c3c(F)cnc(OC)c3O)[C@H]3CC[C@@H]32)c(=O)c2nn(C3=CCOCC3)nc2n1CC(=O)NC12CC(C3CC3)(C1)C2 [I-172, N-{3-cyclopropylbicyclo[1.1.1]pentan-1-yl}-2-[2-(3,6-dihydro-2H-pyran-4-yl)-5-ethyl-6-[(1S,6S)-5-(5-fluoro-3-hydroxy-2-methoxypyridine-4-carbonyl)-2,5-diazabicyclo[4.2.0]octan-2-yl]-7-oxo-2H,4H,7H-[1,2,3]triazolo[4,5-b]pyridin-4-yl]acetamide]
< 6.30	CCc1c(N2CCN(C(=O)c3ncc4c(c3O)CCO4)CC2)c(=O)n2nc(C3=CCOCC3)nc2n1CC(=O)NC12CC(F)(C1)C2 [I-6, 2-(2-(3,6-dihydro-2H-pyran-4-yl)-5-ethyl-6-(4-(4-hydroxy-2,3-dihydrofuro[2,3-c]pyridine-5-carbonyl)piperazin-1-yl)-7-oxo-[1,2,4]triazolo[1,5-a]pyrimidin-4(7H)-yl)-N-(3-fluorobicyclo[1.1.1]pentan-1-yl)acetamide]
≥ 8.30	CCc1c(N2CCN(C(=O)c3nocc3O)[C@H]3CC[C@@H]32)c(=O)c2nn(C3=CCOCC3)nc2n1CC(=O)NC12CC(C(C)C)(C1)C2 [I-161, 2-[2-(3,6-dihydro-2H-pyran-4-yl)-5-ethyl-6-[(1S,6S)-5-(4-hydroxy-1,2-oxazole-3-carbonyl)-2,5-diazabicyclo[4.2.0]octan-2-yl]-7-oxo-2H,4H,7H-[1,2,3]triazolo[4,5-b]pyridin-4-yl]-N-[3-(propan-2-yl)bicyclo[1.1.1]pentan-1-yl]acetamide]
≥ 8.30	CCc1c(N2CCN(C(=O)c3ncnc(C)c3O)[C@H]3CC[C@@H]32)c(=O)c2nn(-c3ccnc(OC)c3)nc2n1CC(=O)NC12CC(C3CCC3)(C1)C2 [I-80, N-{3-cyclobutylbicyclo[1.1.1]pentan-1-yl}-2-{5-ethyl-6-[(1S,6S)-5-(5-hydroxy-6-methylpyrimidine-4-carbonyl)-2,5-diazabicyclo[4.2.0]octan-2-yl]-2-(2-methoxypyridin-4-yl)-7-oxo-2H,4H,7H-[1,2,3]triazolo[4,5-b]pyridin-4-yl}acetamide]

Second part, the molecule before the results:

Compound	pIC50
CCc1c(N2CCN(C(=O)c3ncnc(C)c3O)[C@H]3CC[C@@H]32)c(=O)c2nn(C3=CCC(OC)CC3)nc2n1CC(=O)NC12CC(C3CC3)(C1)C2 (stereo partly drawn) [I-163, N-{3-cyclopropylbicyclo[1.1.1]pentan-1-yl}-2-{5-ethyl-6-[(1S,6S)-5-(5-hydroxy-6-methylpyrimidine-4-carbonyl)-2,5-diazabicyclo[4.2.0]octan-2-yl]-2-(4-methoxycyclohex-1-en-1-yl)-7-oxo-2H,4H,7H-[1,2,3]triazolo[4,5-b]pyridin-4-yl}acetamide]	7.30 to 8.30
CCc1c(N2CCN(C(=O)c3ncnc(C)c3O)CC2)c(=O)c2nn(C3=CCOCC3)nc2n1CC(=O)NC12CC(C(C)C)(C1)C2 [I-59, 2-[2-(3,6-dihydro-2H-pyran-4-yl)-5-ethyl-6-[4-(5-hydroxy-6-methylpyrimidine-4-carbonyl)piperazin-1-yl]-7-oxo-2H,4H,7H-[1,2,3]triazolo[4,5-b]pyridin-4-yl]-N-[3-(propan-2-yl)bicyclo[1.1.1]pentan-1-yl]acetamide]	7.30 to 8.30
CCc1c(N2CCN(C(=O)c3ncnc(C)c3O)[C@H]3CC[C@@H]32)c(=O)c2nn(C3=CCN(CC(F)F)CC3)nc2n1CC(=O)NC12CC(C3CC3)(C1)C2 [I-174, N-{3-cyclopropylbicyclo[1.1.1]pentan-1-yl}-2-{2-[1-(2,2-difluoroethyl)-1,2,3,6-tetrahydropyridin-4-yl]-5-ethyl-6-[(1S,6S)-5-(5-hydroxy-6-methylpyrimidine-4-carbonyl)-2,5-diazabicyclo[4.2.0]octan-2-yl]-7-oxo-2H,4H,7H-[1,2,3]triazolo[4,5-b]pyridin-4-yl}acetamide]	7.30 to 8.30
CCc1c(N2CCN(C(=O)c3ncnc(C)c3O)[C@H]3CCC[C@@H]32)c(=O)c2nn(C3=CCOCC3)nc2n1CC(=O)NC12CC(C3CC3)(C1)C2 [I-60, 2-{6-[(4aS,7aS)-4-(5-hydroxy-6-methylpyrimidine-4-carbonyl)-octahydro-1H-cyclopenta[b]pyrazin-1-yl]-2-(3,6-dihydro-2H-pyran-4-yl)-5-ethyl-7-oxo-2H,4H,7H-[1,2,3]triazolo[4,5-b]pyridin-4-yl}-N-{3-cyclopropylbicyclo[1.1.1]pentan-1-yl}acetamide]	7.30 to 8.30
CCc1c(N2CCN(C(=O)c3ncnc(C)c3O)[C@H]3CC[C@@H]32)c(=O)c2nn(-c3ccnc(C(F)F)c3)nc2n1CC(=O)NC12CC(C3CC3)(C1)C2 [I-171, N-{3-cyclopropylbicyclo[1.1.1]pentan-1-yl}-2-{2-[2-(difluoromethyl)pyridin-4-yl]-5-ethyl-6-[(1S,6S)-5-(5-hydroxy-6-methylpyrimidine-4-carbonyl)-2,5-diazabicyclo[4.2.0]octan-2-yl]-7-oxo-2H,4H,7H-[1,2,3]triazolo[4,5-b]pyridin-4-yl}acetamide]	7.30 to 8.30
CCc1c(N2CCN(C(=O)c3ncnc(C)c3O)[C@H]3CC[C@@H]32)c(=O)c2nn(-c3ccnc(OC)c3)nc2n1CC(=O)NC12CC(C3CCCC3)(C1)C2 [I-183, N-{3-cyclopentylbicyclo[1.1.1]pentan-1-yl}-2-{5-ethyl-6-[(1S,6S)-5-(5-hydroxy-6-methylpyrimidine-4-carbonyl)-2,5-diazabicyclo[4.2.0]octan-2-yl]-2-(2-methoxypyridin-4-yl)-7-oxo-2H,4H,7H-[1,2,3]triazolo[4,5-b]pyridin-4-yl}acetamide]	≥ 8.30
CCc1c(N2CCN(C(=O)c3c(OC)ccc4ncoc34)[C@H]3CC[C@@H]32)c(=O)c2nn(C3=CCOCC3)nc2n1CC(=O)NC12CC(C3CC3)(C1)C2 [I-180, N-{3-cyclopropylbicyclo[1.1.1]pentan-1-yl}-2-[2-(3,6-dihydro-2H-pyran-4-yl)-5-ethyl-6-[(1S,6S)-5-(6-methoxy-1,3-benzoxazole-7-carbonyl)-2,5-diazabicyclo[4.2.0]octan-2-yl]-7-oxo-2H,4H,7H-[1,2,3]triazolo[4,5-b]pyridin-4-yl]acetamide]	7.30 to 8.30
